Activity calls are given as the source filed them.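 How the source made its calls: active means mean IC50 at or below 10 µM; inactive means the rest.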
Each molecule was assayed on H9c2 cardiomyocytes, H2O2 protection, ATPLite viability, 2 h (assay: protection of H9c2 cardiomyocytes from H2O2 death, dose response, cell-based, ATPLite luminescence, set 2 (AID 602211);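 further: potency is for protection so actives keep ATP signal up against peroxide killing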).
`COc1cc(CCNc2ccc3nnc(-c4ccccc4)n3n2)cc(OC)c1OC` gave an IC50 of 9.52 µM. Molecule `COc1cc(/C=N/NC(=O)c2cccnc2)ccc1OCC(=O)Nc1ccccc1Cl` has an IC50 of 1.78 µM. For `COc1cc(NC(=O)c2c(OC)cccc2OC)ccc1NC(=O)c1cc2ccccc2o1`, the IC50 was 15.1 µM (inactive). Work on `O=C(NCC1CCCO1)C(c1ccc(F)cc1)N(C(=O)Cn1nnc(-c2ccc(F)cc2)n1)c1cccc(O)c1` (configuration not stated) yielded an IC50 of 4.48 µM. For `Clc1ccccc1-c1nc(N/N=C/c2cccnc2)c2ccccc2n1`, the IC50 was 7.3 µM. `CCOC(=O)c1cccc(Nc2nc(-c3cccnc3)nc3ccccc23)c1` was tested, and the IC50 was > 79 µM (inactive). Molecule `COc1cccc(-c2cnc3c(NC(C)=O)cc(-c4cccc(NS(C)(=O)=O)c4)cn23)c1` has an IC50 of 7.84 µM. `CC(C)(C)OC(=O)NCC12C=CC(O1)C1C(=O)N(Cc3ccccc3)C(=O)C12` (configuration not stated) was tested, and the IC50 was 2.91 µM. For `COc1ccc(NC(=O)c2oc3ccc(S(=O)(=O)N4CCOCC4)cc3c2C)cc1`, the IC50 was 0.815 µM. Molecule `CCOC(=O)c1cc2c(=O)n3cccc(C)c3nc2n(CCCOC)c1=NC(=O)c1cccnc1` has an IC50 of 2.87 µM. In the case of `NC(=O)c1ccc(Nc2nnc(-c3ccc(O)cc3)c3ccccc23)cc1`, the IC50 is reported as 14.7 µM (inactive). `COc1ccc2[nH]c(=O)c(CN(Cc3cccnc3)S(=O)(=O)c3ccccc3F)cc2c1` gave an IC50 of 0.43 µM. `COc1ccccc1NC(=O)c1cc(-c2ccc(OC)c(OC)c2)nc2ccccc12` showed an IC50 of 4.06 µM. `COc1cc(/C=C/c2nnc3c4ccccc4ncn23)cc(OC)c1OC` showed an IC50 of 4.47 µM. `CSc1nc2ccc(S(=O)(=O)Nc3c(C)n(C)n(-c4ccccc4)c3=O)cc2s1` showed an IC50 of 3.1 µM. Work on `Cn1c(=O)[nH]c(=O)c2c1nc(Br)n2CC(O)COc1ccc(Cl)cc1` (configuration not stated) yielded an IC50 of 2.44 µM. With `O=C(Nc1nc(-c2ccccn2)cs1)c1ccc(-c2ccccc2F)o1` the IC50 was 3 µM. `CCOc1ccc2ccccc2c1C(=O)N[C@@H]1C(=O)N2[C@@H]1SC(C)(C)[C@@H]2C(=O)O` was tested, and the IC50 was 24.4 µM (inactive). With `Cc1c(/C=N/NC(=O)c2ccc(O)cc2)c2ccccn2c1C(=O)c1ccc(F)cc1` the IC50 was 5.2 µM. In the case of `COC(=O)c1cccc(Nc2nc(-c3cccnc3)nc3ccccc23)c1`, the IC50 is reported as 7.12 µM. `O=C(O)c1ccc2c(c1)S(=O)(=O)c1cc(N3CCN(c4cnccn4)CC3)ccc1C2=O` was tested, and the IC50 was > 79 µM (inactive). `O=C(CN(c1ccc2c(c1)OCCO2)S(=O)(=O)c1ccccc1)Nc1ccc2c(c1)OCO2` showed an IC50 of 4.32 µM. `COc1ccc(CCNC(=O)c2cc3c(C)nccc3[nH]c2=O)cc1OC` showed an IC50 of 7.47 µM. For `COc1cccc2cc(-c3cc(=O)oc4ccc(OCC(C)=O)cc34)oc12`, the IC50 was 3.21 µM. With `Cc1nc(N2CCN(c3ccccn3)CC2)c2c(C)c(C(=O)Nc3ccc(F)cc3)sc2n1` the IC50 was 4.36 µM. Work on `O=C1NC(Cc2ccc(O)cc2)c2nc3ccc(F)cc3c(=O)n2-c2cc3ccccc3cc21` (configuration not stated) yielded an IC50 of 3.72 µM. Molecule `O=C(CCCN1C(=O)c2cccc3cccc(c23)C1=O)N1CCN(c2ccccc2O)CC1` has an IC50 of 4.54 µM. `O=C(CNC(=O)c1nc[nH]c1C(=O)NCC(=O)OCc1ccccc1)OCc1ccccc1` showed an IC50 of 0.38 µM. With `COc1ccc(C(=O)Nc2nc(-c3ccccn3)cs2)cc1S(=O)(=O)N1CCOCC1` the IC50 was 11.9 µM (inactive). `CC(=O)Nc1cc(-c2cccc(C(=O)N(C)C)c2)cn2c(-c3ccc(C(C)=O)cc3)cnc12` showed an IC50 of 7.78 µM. With `CCOC(=O)c1cc2c(=O)n3ccccc3nc2n(Cc2ccco2)c1=NC(=O)c1cccnc1` the IC50 was 19 µM (inactive). With `O=C1c2ccccc2C(=O)N1CCCCSc1nc2ccccc2c(=O)n1CCCN1CCOCC1` the IC50 was 8.49 µM. For `COc1cc(C(=O)N/N=C/c2sc(N3CCOCC3)nc2-c2ccccc2)cc(OC)c1OC`, the IC50 was 16.9 µM (inactive). `COc1cc(-c2cc(C(=O)NCc3ccco3)c3ccccc3n2)cc(OC)c1OC` was tested, and the IC50 was 13.5 µM (inactive). For `O=C(c1ccc(-c2nc3ccccc3s2)o1)N1CCN(c2ccccc2O)CC1`, the IC50 was 5.48 µM. With `COc1cccc(/C=N/NC(=O)c2oc3nc(-c4ccccc4)cc(-c4ccco4)c3c2N)c1` the IC50 was 5.87 µM. For `CC(=O)c1cccc(-c2cnc3c(NC=O)cc(-c4cccc(C(=O)N(C)C)c4)cn23)c1`, the IC50 was 14.9 µM (inactive). For `COc1cc(Nc2nc3ccccc3n3nnnc23)cc(OC)c1OC`, the IC50 was 1.38 µM. `COc1ccc2[nH]c(=O)c(CN(CC3CCCO3)S(=O)(=O)c3ccccc3F)cc2c1` (configuration not stated) showed an IC50 of 4.52 µM. With `NC(=O)c1nsc(C(=O)N(c2ccccc2)C(C(=O)NCc2ccc(F)cc2)c2ccc(O)cc2)c1N` (configuration not stated) the IC50 was 1.98 µM. With `CC(C)c1ccccc1NC(=O)COC(=O)c1c2c(nc3ccccc13)CCN(Cc1ccccc1)C2` the IC50 was 5.25 µM. With `Cn1c(-n2c(CCCN3C(=O)c4ccccc4C3=O)nc3ccccc3c2=O)nc2ccccc21` the IC50 was 11.6 µM (inactive). `O=C(c1cc(=O)[nH]c2ccccc12)N1CCN(S(=O)(=O)c2ccc3ccccc3c2)CC1` gave an IC50 of 2.89 µM. With `COc1ccc(-c2cc(NC=O)c3ncc(-c4cccc(C(C)=O)c4)n3c2)cc1` the IC50 was > 79 µM (inactive). `C[C@@H](NC(=O)c1nc[nH]c1C(=O)NCC(=O)OCc1ccccc1)c1ccccc1` was tested, and the IC50 was 51.6 µM (inactive). `COc1ccc(OC)c(/C=N/Nc2nncn2/N=C/c2cc(OC)ccc2OC)c1` showed an IC50 of 6.17 µM. Molecule `COc1cccc(Nc2nc3ccccc3n3cnnc23)c1` has an IC50 of 9.05 µM.
